Reference: patent US11078198B2 (BRISTOL-MYERS SQUIBB COMPANY, priority 2017, dated 2021)

Each molecule was assayed against T1, human FXR (Homo sapiens, UniProt Q96RI1) (assay: transient human FXR/Gal4-luciferase reporter assay). Conditions: Gal4-hFXR transfected HEK293 reporter cells; relative to 8 μM GW-4064.
T1 construct: expressed in transfected cells; host or cells: HEK293 cells stably carrying a 5xGal4-response-element firefly luciferase reporter, transiently transfected with pcDNA3.1-Gal4-FXR
T1 sequence (Q96RI1 262-486 limits assumed): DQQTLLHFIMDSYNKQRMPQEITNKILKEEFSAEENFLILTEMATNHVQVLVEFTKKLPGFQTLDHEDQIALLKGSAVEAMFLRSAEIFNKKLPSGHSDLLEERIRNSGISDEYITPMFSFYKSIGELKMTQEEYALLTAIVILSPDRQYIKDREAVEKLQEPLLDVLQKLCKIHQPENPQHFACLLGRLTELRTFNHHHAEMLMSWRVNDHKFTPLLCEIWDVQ
Assay type: cell-based
Method in brief: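 HEK293 cells stably carrying a 5×Gal4-response-element firefly luciferase reporter, transiently transfected overnight with a CMV-driven Gal4 DNA-binding domain/human FXR ligand-binding domain fusion.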
CCOc1cc(C(=O)O)nc2ccc(N3CCC4(C=C(c5c(-c6ccccc6C(F)(F)F)noc5C5CC5)C4)CC3)cc12 [Example 72, 6-(2-(5-Cyclopropyl-3-(2-(trifluoromethyl)phenyl)isoxazol-4-yl)-7-azaspiro[3.5]non-1-en-7-yl)-4-ethoxyquinoline-2-carboxylic acid] gave an EC50 of 10 nM. CCOc1cc(C(=O)O)nc2ccc(N3CCC4(C=C(c5c(-c6c(Cl)cncc6Cl)noc5C5CC5)C4)CC3)cc12 [Example 107, 6-(2-(5-Cyclopropyl-3-(3,5-dichloropyridin-4-yl)isoxazol-4-yl)-7-azaspiro[3.5]non-1-en-7-yl)-4-ethoxyquinoline-2-carboxylic acid] showed an EC50 of 31 nM. Work on COc1cc(C(=O)O)cc2sc(N3CCC4(C=C(c5c(-c6c(Cl)cncc6Cl)noc5C5CC5)C4)CC3)nc12 [Example 59, 2-(2-(5-Cyclopropyl-3-(3,5-dichloropyridin-4-yl)isoxazol-4-yl)-7-azaspiro[3.5]non-1-en-7-yl)-4-methoxybenzo[d]thiazole-6-carboxylic acid] yielded an EC50 of 4.1 nM. O=C(O)c1cc(C(F)(F)F)c2cc(N3CCC4(C=C(c5c(-c6cccnc6C(F)(F)F)noc5C5CC5)C4)CC3)ccc2n1 [Example 92, 6-(2-(5-Cyclopropyl-3-(2-(trifluoromethyl)pyridin-3-yl)isoxazol-4-yl)-7-azaspiro[3.5]non-1-en-7-yl)-4-(trifluoromethyl)quinoline-2-carboxylic acid] gave an EC50 of 253 nM. Molecule O=C(O)c1ccc2cc(N3CCC4(C=C(c5c(-c6ccncc6Cl)noc5C5CC5)C4)CC3)ccc2n1 [Example 150, 6-(2-(3-(3-Chloropyridin-4-yl)-5-cyclopropylisoxazol-4-yl)-7-azaspiro[3.5]non-1-en-7-yl)quinoline-2-carboxylic acid] has an EC50 of 4350 nM. O=C(O)c1cc(F)c2nc(N3CC4(C=C(c5c(-c6ccccc6C(F)(F)F)noc5C5CC5)C4)C3)sc2c1 [Example 34, 2-(6-(5-cyclopropyl-3-(2-(trifluoromethyl)phenyl)isoxazol-4-yl)-2-azaspiro[3.3]hept-5-en-2-yl)-4-fluorobenzo[d]thiazole-6-carboxylic acid] showed an EC50 of 400 nM. In the case of O=C(O)c1cnc(N2CCC3(C=C(c4c(-c5c(Cl)cccc5Cl)noc4C4CC4)C3)CC2)nc1C(F)(F)F [Example 119, 2-(2-(5-Cyclopropyl-3-(2,6-dichlorophenyl)isoxazol-4-yl)-7-azaspiro[3.5]non-1-en-7-yl)-4-(trifluoromethyl)pyrimidine-5-carboxylic acid], the EC50 is reported as 316 nM. O=C(NS(=O)(=O)C1CC1)c1cc(F)c2nc(N3CCC4(C=C(c5c(-c6c(Cl)cccc6Cl)noc5C5CC5)C4)CC3)sc2c1 [Example 179, 2-(2-(5-Cyclopropyl-3-(2,6-dichlorophenyl)isoxazol-4-yl)-7-azaspiro[3.5]non-1-en-7-yl)-N-(cyclopropylsulfonyl)-4-fluorobenzo[d]thiazole-6-carboxamide] was tested, and the EC50 was 13 nM. Cc1cc(C(=O)O)nc(N2CCC3(C=C(c4c(-c5c(Cl)cccc5Cl)noc4C4CC4)C3)CC2)n1 [Example 120, 2-(2-(5-Cyclopropyl-3-(2,6-dichlorophenyl)isoxazol-4-yl)-7-azaspiro[3.5]non-1-en-7-yl)-6-methylpyrimidine-4-carboxylic acid] showed an EC50 of 1390 nM. Work on CC(C)Oc1cc(C(=O)O)nc2ccc(N3CCC4(C=C(c5c(-c6c(Cl)cc(F)cc6Cl)noc5C5CC5)C4)CC3)cc12 [Example 110, 6-(2-(5-Cyclopropyl-3-(2,6-dichloro-4-fluorophenyl)isoxazol-4-yl)-7-azaspiro[3.5]non-1-en-7-yl)-4-isopropoxyquinoline-2-carboxylic acid] yielded an EC50 of 37 nM. With COc1cc(C(=O)O)nc2ccc(N3CCC4(C=C(c5c(-c6cccnc6C(F)(F)F)noc5C5CC5)C4)CC3)cc12 [Example 144, 6-(2-(5-Cyclopropyl-3-(2-(trifluoromethyl)pyridin-3-yl)isoxazol-4-yl)-7-azaspiro[3.5]non-1-en-7-yl)-4-methoxyquinoline-2-carboxylic acid] the EC50 was 156 nM. O=C(O)c1ccc2nc(N3CCC4(C=C(c5c(-c6c(Cl)cccc6Cl)noc5C5CC5)C4)CC3)ccc2c1 [Example 122, 2-(2-(5-Cyclopropyl-3-(2,6-dichlorophenyl)isoxazol-4-yl)-7-azaspiro[3.5]non-1-en-7-yl)quinoline-6-carboxylic acid] gave an EC50 of 40 nM. With O=C(O)c1ccc2nc(N3CCC4(C=C(c5c(-c6c(Cl)cncc6Cl)noc5C5CC5)C4)CC3)sc2n1 [Example 62, 2-(2-(5-Cyclopropyl-3-(3,5-dichloropyridin-4-yl)isoxazol-4-yl)-7-azaspiro[3.5]non-1-en-7-yl)thiazolo[5,4-b]pyridine-5-carboxylic acid] the EC50 was 24 nM. O=C(O)c1ccc2nc(N3CCC4(C=C(c5c(-c6ccccc6C(F)(F)F)noc5C5CC5)C4)CC3)sc2n1 [Example 102, 2-(2-(5-Cyclopropyl-3-(2-(trifluoromethyl)phenyl)isoxazol-4-yl)-7-azaspiro[3.5]non-1-en-7-yl)thiazolo[5,4-b]pyridine-5-carboxylic acid] showed an EC50 of 18 nM. Cc1cccc(Cl)c1-c1noc(C2CC2)c1C1=CC2(CCN(c3ccc4nc(C(=O)O)cc(C(F)(F)F)c4c3)CC2)C1 [Example 89, 6-(2-(3-(2-Chloro-6-methylphenyl)-5-cyclopropylisoxazol-4-yl)-7-azaspiro[3.5]non-1-en-7-yl)-4-(trifluoromethyl)quinoline-2-carboxylic acid] showed an EC50 of 202 nM. For Cn1c(C(=O)O)cc2ccc(N3CCC4(C=C(c5c(-c6c(Cl)cccc6Cl)noc5C5CC5)C4)CC3)cc21 [Example 128, 6-(2-(5-Cyclopropyl-3-(2,6-dichlorophenyl)isoxazol-4-yl)-7-azaspiro[3.5]non-1-en-7-yl)-1-methyl-1H-indole-2-carboxylic acid], the EC50 was 287 nM. With O=C(O)c1cc(F)c2nc(N3CCC4(C=C(c5c(-c6c(F)cncc6F)noc5C5CC5)C4)CC3)sc2c1 [Example 68, 2-(2-(5-Cyclopropyl-3-(3,5-difluoropyridin-4-yl)isoxazol-4-yl)-7-azaspiro[3.5]non-1-en-7-yl)-4-fluorobenzo[d]thiazole-6-carboxylic acid] the EC50 was 442 nM. In the case of O=C(O)c1cc(F)c2nc(N3CCC4(C=C(c5c(C(F)F)cnn5-c5ccccc5C(F)(F)F)C4)CC3)sc2c1 [Example 213, 2-(2-(4-(Difluoromethyl)-1-(2-(trifluoromethyl)phenyl)-1H-pyrazol-5-yl)-7-azaspiro[3.5]non-1-en-7-yl)-4-fluorobenzo[d]thiazole-6-carboxylic acid], the EC50 is reported as 48 nM. O=C(O)c1cc(F)c2nc(N3CCC4(C=C(c5c(C6CC6)nnn5-c5c(Cl)cccc5Cl)C4)CC3)sc2c1 [Example 204, 2-(2-(4-Cyclopropyl-1-(2,6-dichlorophenyl)-1H-1,2,3-triazol-5-yl)-7-azaspiro[3.5]non-1-en-7-yl)-4-fluorobenzo[d]thiazole-6-carboxylic acid] showed an EC50 of 26 nM. With O=C(NS(=O)(=O)C1CC1)c1cc(F)c2nc(N3CCC4(C=C(c5c(-c6c(Cl)cncc6Cl)noc5C5CC5)C4)CC3)sc2c1 [Example 181, 2-(2-(5-Cyclopropyl-3-(3,5-dichloropyridin-4-yl)isoxazol-4-yl)-7-azaspiro[3.5]non-1-en-7-yl)-N-(cyclopropylsulfonyl)-4-fluorobenzo[d]thiazole-6-carboxamide] the EC50 was 60 nM. In the case of O=C(O)c1cc(F)c2nc(N3CCC4(CC3)CC(O)(c3c(-c5c(Cl)cccc5Cl)noc3C3CC3)C4)sc2c1 [Example 33, 2-(2-(5-Cyclopropyl-3-(2,6-dichlorophenyl)isoxazol-4-yl)-2-hydroxy-7-azaspiro[3.5]nonan-7-yl)-4-fluorobenzo[d]thiazole-6-carboxylic acid], the EC50 is reported as 4800 nM. O=C(O)c1cc2ccc(N3CCC4(C=C(c5c(-c6c(Cl)cccc6Cl)noc5C5CC5)C4)CC3)cc2cn1 [Example 129, 7-(2-(5-Cyclopropyl-3-(2,6-dichlorophenyl)isoxazol-4-yl)-7-azaspiro[3.5]non-1-en-7-yl)isoquinoline-3-carboxylic acid] showed an EC50 of 341 nM. O=C(O)c1cc(OC(F)(F)F)c2nc(N3CCC4(C=C(c5c(-c6c(Cl)cncc6Cl)noc5C5CC5)C4)CC3)sc2c1 [Example 50, 2-(2-(5-Cyclopropyl-3-(3,5-dichloropyridin-4-yl)isoxazol-4-yl)-7-azaspiro[3.5]non-1-en-7-yl)-4-(trifluoromethoxy)benzo[d]thiazole-6-carboxylic acid] showed an EC50 of 11 nM. Molecule O=C(O)c1cc(F)c2nc(OC3CCC4(CC3)CC(O)(c3c(-c5c(Cl)cccc5Cl)noc3C3CC3)C4)sc2c1 (centres unmarked) [Example 205, 2-((2-(5-Cyclopropyl-3-(2,6-dichlorophenyl)isoxazol-4-yl)-2-hydroxyspiro[3,5]nonan-7-yl)oxy)-4-fluorobenzo[d]thiazole-6-carboxylic acid] has an EC50 of 2620 nM. For Cn1nc(C(=O)O)c2ccc(N3CCC4(C=C(c5c(-c6ccccc6C(F)(F)F)noc5C5CC5)C4)CC3)cc21 [Example 164, 6-(2-(5-Cyclopropyl-3-(2-(trifluoromethyl)phenyl)isoxazol-4-yl)-7-azaspiro[3.5]non-1-en-7-yl)-1-methyl-1H-indazole-3-carboxylic acid], the EC50 was 392 nM. In the case of O=C(O)c1cc(OC(F)F)c2cc(N3CCC4(C=C(c5c(-c6ccncc6Cl)noc5C5CC5)C4)CC3)ccc2n1 [Example 74, 6-(2-(3-(3-Chloropyridin-4-yl)-5-cyclopropylisoxazol-4-yl)-7-azaspiro[3.5]non-1-en-7-yl)-4-(difluoromethoxy)quinoline-2-carboxylic acid], the EC50 is reported as 38 nM.
